Measured values published in US20230031369A1, “THERAPEUTIC INTERACTIONS OF LEUCOMETHYLTHIONINIUM” (WisTa Laboratories Ltd., priority 2019, published 2023).
Entries after “also recorded” stand apart in the source; their conditions may differ.

Tests used:
[1] = system: ACh levels in the hippocampus; test: Hippocampal ACh levels with scopolamine and 100 nanomolar rivastigmine in the perfusion fluid; assay type: in vivo, wild type mice
Method: Under the condition of cholinesterase inhibition used in these experiments (a very small amount of a cholinesterase inhibitor, 100 nanomolar rivastigmine, added to the perfusion fluid), ACh levels in the hippocampus rise, and when they rise strongly enough, they limit additional ACh release by activating pre-synaptic muscarinic receptors of the M2/M4 subtype (so-called negative feedback receptors).
In this situation, adding scopolamine (1 μM) to the perfusion fluid blocks these presynaptic receptors and, as a consequence, ACh levels rise by 3-5 fold. The fact that LMTM is not additive with rivastigmine in these experiments supports the conclusion that LMTM has a different mechanism of action from rivastigmine. In other words, although LMTM has been described as being a weak inhibitor of cholinesterases in high concentrations, the present effects seem to be unrelated to cholinesterase inhibition, because there is no additive effect with small quantities of rivastigmine.

mitochondrial complex IV [2] = test: Complex IV activity relative to citrate synthetase activity in brain mitochondria, L1 mice; assay type: in vivo, tau transgenic L1 mice
Method: (§1) Wild-type and L1 mice (n=7-16 for each group) were pre-treated with rivastigmine (0.1 or 0.5 mg/kg/day) or memantine (2 or 20 mg/kg/day) or vehicle for 5 weeks by gavage. For the following 6 weeks, LMTM (5 and 15 mg/kg) or vehicle were added to this daily treatment regime, also by gavage. Animals were tested behaviourly during weeks 10 and 11 using a problem solving task in the open field water maze and then sacrificed for immunohistochemical and other tissue analyses.

[3] = ADAS-cog change after withdrawal of LMTM 8 mg/day following 18 months of treatment; assay type: in vivo, human
Method: Following 18 months of treatment with 8 mg/day LMTM, subjects were required to have a 1 month “washout” followed by cognitive assessment of change. The group was split according to whether they has received LMTM as an add-on to existing symptomatic therapy (AChEI, Memantine, collectively abbreviated to “Achmem”) or as a monotherapy.
The group was further analysed in terms of subjects who had received a high Cmax exposure or a low one.

[4] = system: acetylcholine (ACh) levels in hippocampus; test: Hippocampal ACh levels by microdialysis and HPLC, L1 mice; assay type: in vivo, tau transgenic L1 mice
Method: (§2) For measurement of acetylcholine (ACh) levels in hippocampus, animals (wild-type or L1) were treated with LMTM (5 mg/kg/day for 2 weeks) after prior treatment for 2 weeks with or without rivastigmine (0.5 mg/kg/day). Rivastigmine was administered subcutaneously with an Alzet minipump whereas LMTM was administered by oral gavage. Levels of ACh were measured in hippocampus using an implanted microdialysis probe and HPLC analysis of the extracellular fluid.

core tau unit of the PHF = target: T1, core tau unit of the PHF (Homo sapiens, UniProt P10636); test: Tau immunoreactivity (relative optical density) in vertical diagonal band, L1 mice; assay type: in vivo, tau transgenic L1 mice
T1 construct: three-repeat tau fragment encompassing residues 296-390 of the 2N4R tau isoform; expressed in transfected cells; host or cells: transgenic L1 mice (NMRI strain, Thy 1 promotor), brain sections of the vertical diagonal band
T1 sequence (P10636 613-707): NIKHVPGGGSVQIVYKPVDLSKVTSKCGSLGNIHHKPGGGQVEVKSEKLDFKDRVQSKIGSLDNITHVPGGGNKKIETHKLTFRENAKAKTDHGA
Method: FIG. 5. Treatment effects of LMTM alone or following chronic pretreatment with rivastigmine in tau transgenic L1 mice compared with vehicle-treated wild-type mice on levels of tau immunoreactivity (relative optical density) (A) and neurons immunoreactive for choline acetyltransferase (B) in vertical diagonal band. (*, p<0.05; **, p<0.01; ***, p<0.001).
as §1
(§3) Translating doses from mice to humans requires consideration of a number of factors. […] The higher dose of 15 mg/kg/day is generally required for LMTM to be fully effective in the L1 mouse model (Melis et al., 2015a). […] Tissue sectioned for immunohistochemistry was labelled with antibody and processed using Image J to determine protein expression densitometrically. Data are presented as Z-score transformations without units.

[5] = system: glutamate release from brain synaptosomal preparations; test: Glutamate release from brain synaptosomal preparations, L1 mice; assay type: in vivo, tau transgenic L1 mice
[6] = 8 mg/day dose; split at Cmax threshold of […]; from WO2020/020751; cited from earlier work
wild-type mice = test: Problem solving task in the open field water maze, wild-type mice; assay type: in vivo; conditions: LMTM
Method: as §1

tau transgenic L1 mice = test: Problem solving task in the open field water maze, L1 mice; assay type: in vivo
Method: FIG. 7. Effect of combined administration of Memantine and LMTM on problem solving deficits in female Line 1 mice, aged 5.5 months at the beginning of the study. Memantine was administered at 20 mg/kg and LMTM at 15 mg/kg. Mice were treated with vehicle or Memantine for 5 weeks prior to Memantine plus LMTM treatment for 6 weeks, with the mice being tested in the water maze task over weeks 10 and 11.
as §1

[7] = system: SNARE complex proteins (SNAP25, syntaxin and VAMP2); test: Immunohistochemistry of SNARE complex proteins, L1 mice; assay type: in vivo, tau transgenic L1 mice; conditions: combination of LMTM with chronic rivastigmine pretreatment
Method: FIG. 3. Treatment effects of LMTM alone or following chronic pretreatment with rivastigmine in tau transgenic L1 mice on levels of (A) SNARE complex proteins (SNAP25, syntaxin and VAMP2) and (B) α-synuclein measured immunohistochemically as the mean value for hippocampus, visual cortex, diagonal band and septum. (*, p<0.05; ***, p<0.001; ****, p<0.0001).
as §1, §3

[8] = system: acetylcholine (ACh) levels in hippocampus; test: Hippocampal ACh levels by microdialysis and HPLC, wild-type mice; assay type: in vivo; conditions: LMTM after prior treatment with rivastigmine
Method: as §2

mitochondrial complex IV [9] = test: Complex IV activity in brain mitochondria, wild-type mice; assay type: in vivo; conditions: following LMTM treatment
Method: as §1

pathological tau = conditions: in vivo (Congdon et al., 2012); cited from earlier work
cholinesterase = conditions: reported (Pfaffendorf et al., 1997; Deiana et al., 2009); cited from earlier work
electron transfer chain = conditions: acting as a supplementary electron carrier in the electron transfer chain; cited from earlier work
[10] = LMTM preceded by chronic rivastigmine

Structure (SMILES): CN1[C@@H]2C[C@@H](OC(=O)[C@H](CO)c3ccccc3)C[C@H]1[C@@H]1O[C@@H]12 [scopolamine, reference compound]
- rise in ACh levels ([1]; scopolamine 1 μM added to the perfusion fluid containing 100 nanomolar rivastigmine): 3-5 fold

Structure (SMILES): CN(C)c1ccc2c(c1)Sc1cc(N(C)C)ccc1N2 [LMTM, Leuco-methylthioninium bis(hydromethanesulfonate)]
- mitochondrial complex IV activity (mitochondrial complex IV [2]; LMTM alone): increased; also recorded: significant increases; also recorded: significant enhancement; also recorded: strong effect
- mitochondrial complex IV activity (mitochondrial complex IV [2]; [10]): None of these effects were seen; also recorded: eliminated this effect
- ADAS-cog change following LMTM withdrawal ([3]; 18 month LMTM 8 mg/day as add on to symptomatic therapy (AChEI, Memantine), high exposure (Cmax) group, p-value=0.0021): −0.98
- ADAS-cog change following LMTM withdrawal ([3]; 18 month LMTM 8 mg/day as add on to symptomatic therapy (AChEI, Memantine), lower exposure group, p-value=0.0855): 0.51
- ADAS-cog change following LMTM withdrawal ([3]; 18 month LMTM 8 mg/day monotherapy, high exposure (Cmax) group, p-value=0.1651): 0.73
- ADAS-cog change following LMTM withdrawal ([3]; 18 month LMTM 8 mg/day monotherapy, lower exposure group, p-value=0.0011): 2.29
- ACh release in the hippocampus ([4]; LMTM alone): increased; also recorded: significant increases
- ACh release in the hippocampus [4, 10]: None of these effects were seen
- immunoreactivity against the core tau unit of the PHF measured by optical density (core tau unit of the PHF; LMTM after prior chronic treatment with rivastigmine): persist
- immunoreactivity against the core tau unit of the PHF measured by optical density (core tau unit of the PHF; LMTM alone): reduced
- glutamate release from brain synaptosomal preparations ([5]; LMTM alone): increased; also recorded: significant increases; also recorded: restoration of normal glutamate release
- glutamate release from brain synaptosomal preparations [5, 10]: None of these effects were seen
- treatment difference in high and low Cmax patients [6]: −3.4 ADAS-cog units
- spatial recognition memory (wild-type mice): not associated with improvement
- behavioural changes (spatial learning) (tau transgenic L1 mice; LMTM alone): reversed deficits; also recorded: significant increases
- behavioural changes (tau transgenic L1 mice; [10]): None of these effects were seen
- SNARE complex proteins [7]: levels below those seen in the absence of LMTM treatment
- reduction in basal ACh levels in hippocampus [8]: 30%
- complex IV activity (mitochondrial complex IV [9]): did not show any increase; also recorded: no effect
- ACh levels ([1]; wild type mice, scopolamine experiments, combination of LMTM with rivastigmine): inhibitory; also recorded: not additive
- increase in ACh levels ([1]; wild type mice, scopolamine used to increase ACh levels, LMTM alone): less than that seen with rivastigmine alone

Structure (SMILES): CN(C)c1ccc2nc3ccc(=[N+](C)C)cc-3sc2c1 [MT, Methylthioninium]
- concentration range increasing clearance of pathological tau via enhancement of autophagy (pathological tau): 10-20 nM
- cholinesterase inhibition (cholinesterase): weak cholinesterase inhibitor
- concentrations at which mitochondrial activity is enhanced (electron transfer chain): 10 to 100 nM
